ChEMBL document CHEMBL4813949, “Hypothemycin-Type Resorcylic Acid Lactones with Immunosuppressive Activities from a Podospora sp” (J Nat Prod, 2021)

Each compound was assayed on Splenocyte (assay: Cytotoxicity against BALB/c mouse splenocytes at 50 uM incubated for 48 hrs by MTT assay). Details: not given.
Assay type: cell-based

SMILES	Activity
C[C@H](O)CCC[C@@H]1CCCC(=O)Cc2cc(O)cc(O)c2C(=O)O1	Non-Toxic
COc1cc(O)c2c(c1)/C=C/C[C@@H](O)[C@@H](O)C(=O)/C=C/C[C@H](C)OC2=O	Non-Toxic
COc1cc(O)c2c(c1)/C=C/C[C@H](O)[C@H](O)C(=O)CCC[C@H](C)OC2=O	Non-Toxic
COc1cc(O)c2c(c1)/C=C/CC[C@H](O)C(=O)CCC[C@H](C)OC2=O	Non-Toxic
C[C@H]1C/C=C/[C@@H](O)[C@@H](O)CC/C=C/c2cc(O)cc(O)c2C(=O)O1 [AIGIALOMYCIN D]	Non-Toxic
COc1cc(O)c2c(c1)/C=C/C[C@H](O)[C@@H](O)[C@@H](O)CCC[C@H](C)OC2=O	Non-Toxic
COc1cc(O)c2c(c1)/C=C/C[C@H](O)[C@@H](O)C(=O)CCC[C@H](C)OC2=O	Non-Toxic
COc1cc(O)c2c(c1)/C=C/C[C@@H](O)[C@@H](O)C(=O)CCC[C@H](C)OC2=O	Non-Toxic
C[C@H](O)C/C=C/[C@@H]1CCCC(=O)Cc2cc(O)cc(O)c2C(=O)O1	Non-Toxic

The compounds below were run on T-cell (assay: Induction of apoptosis in ConA-induced mouse splenic T cells assessed as early apoptotic cells at 1 uM after 48 hrs by Annexin V-FITC/propidium iodide staining based flow cytometry analysis (reference value: 7.1 %)). Details: not given.
Assay type: functional

SMILES	Activity [%]
COc1cc(O)c2c(c1)/C=C/C[C@H](O)[C@H](O)C(=O)CCC[C@H](C)OC2=O	9.1

What follows are compounds tested on T-cell (assay: Induction of apoptosis in ConA-induced mouse splenic T cells assessed as early apoptotic cells at 5 uM after 48 hrs by Annexin V-FITC/propidium iodide staining based flow cytometry analysis (reference value: 6.9 %)). Details: not given.
Assay type: functional

SMILES	Activity [%]
C[C@H](O)C/C=C/[C@@H]1CCCC(=O)Cc2cc(O)cc(O)c2C(=O)O1	12.1

What follows are compounds tested on T-cell (assay: Induction of apoptosis in ConA-induced mouse splenic T cells assessed as downregulation of JNK phosphorylation after 48 hrs by Western blotting analysis). Details: dose 5-20 µM.
Assay type: functional, cell-based

SMILES	Activity
C[C@H](O)C/C=C/[C@@H]1CCCC(=O)Cc2cc(O)cc(O)c2C(=O)O1	Dose-Dependent Effect

Each compound was assayed on Splenocyte (assay: Immunosuppressive activity in BALB/c mouse splenocytes assessed as inhibition of concanavalin A-stimulated T-cell proliferation incubated for 48 hrs by MTT assay). Details: not given.
Assay type: functional, cell-based

SMILES	IC50 [µM]
C[C@H](O)CCC[C@@H]1CCCC(=O)Cc2cc(O)cc(O)c2C(=O)O1	> 50
COc1cc(O)c2c(c1)/C=C/C[C@@H](O)[C@@H](O)C(=O)/C=C/C[C@H](C)OC2=O	15.2
COc1cc(O)c2c(c1)/C=C/C[C@H](O)[C@H](O)C(=O)CCC[C@H](C)OC2=O	7.4
COc1cc(O)c2c(c1)/C=C/CC[C@H](O)C(=O)CCC[C@H](C)OC2=O	> 50
C[C@H]1C/C=C/[C@@H](O)[C@@H](O)CC/C=C/c2cc(O)cc(O)c2C(=O)O1 [AIGIALOMYCIN D]	16.3
COc1cc(O)c2c(c1)/C=C/C[C@H](O)[C@@H](O)[C@@H](O)CCC[C@H](C)OC2=O	> 50
COc1cc(O)c2c(c1)/C=C/C[C@H](O)[C@@H](O)C(=O)CCC[C@H](C)OC2=O	> 50
COc1cc(O)c2c(c1)/C=C/C[C@@H](O)[C@@H](O)C(=O)CCC[C@H](C)OC2=O	16.5
C[C@H](O)C/C=C/[C@@H]1CCCC(=O)Cc2cc(O)cc(O)c2C(=O)O1	10.6

The compounds below were run on T-cell (assay: Induction of apoptosis in ConA-induced mouse splenic T cells assessed as late apoptotic cells at 10 uM after 48 hrs by Annexin V-FITC/propidium iodide staining based flow cytometry analysis (reference value: 0.4 %)). Details: not given.
Assay type: functional

SMILES	Activity [%]
C[C@H](O)C/C=C/[C@@H]1CCCC(=O)Cc2cc(O)cc(O)c2C(=O)O1	37.2

These compounds were tested on T-cell (assay: Induction of apoptosis in ConA-induced mouse splenic T cells assessed as increase in cytochrome C protein expression after 48 hrs by Western blotting analysis). Details: dose 5-20 µM.
Assay type: functional, cell-based

SMILES	Activity
C[C@H](O)C/C=C/[C@@H]1CCCC(=O)Cc2cc(O)cc(O)c2C(=O)O1	Dose-Dependent Effect

These compounds were tested on T-cell (assay: Induction of apoptosis in ConA-induced mouse splenic T cells assessed as late apoptotic cells at 20 uM after 48 hrs by Annexin V-FITC/propidium iodide staining based flow cytometry analysis (reference value: 0.4 %)). Details: not given.
Assay type: functional

SMILES	Activity [%]
C[C@H](O)C/C=C/[C@@H]1CCCC(=O)Cc2cc(O)cc(O)c2C(=O)O1	55.8

The compounds below were run on T-cell (assay: Induction of apoptosis in ConA-induced mouse splenic T cells assessed as early apoptotic cells at 20 uM after 48 hrs by Annexin V-FITC/propidium iodide staining based flow cytometry analysis (reference value: 6.9 %)). Details: not given.
Assay type: functional

SMILES	Activity [%]
C[C@H](O)C/C=C/[C@@H]1CCCC(=O)Cc2cc(O)cc(O)c2C(=O)O1	8.9

What follows are compounds tested on T-cell (assay: Induction of apoptosis in ConA-induced mouse splenic T cells assessed as early apoptotic cells at 10 uM after 48 hrs by Annexin V-FITC/propidium iodide staining based flow cytometry analysis (reference value: 6.9 %)). Details: not given.
Assay type: functional

SMILES	Activity [%]
C[C@H](O)C/C=C/[C@@H]1CCCC(=O)Cc2cc(O)cc(O)c2C(=O)O1	11

What follows are compounds tested on T-cell (assay: Induction of apoptosis in ConA-induced mouse splenic T cells assessed as decrease in Bcl-xL protein expression after 48 hrs by Western blotting analysis). Details: dose 5-20 µM.
Assay type: functional, cell-based

SMILES	Activity
C[C@H](O)C/C=C/[C@@H]1CCCC(=O)Cc2cc(O)cc(O)c2C(=O)O1	Dose-Dependent Effect

These compounds were tested on T-cell (assay: Induction of apoptosis in ConA-induced mouse splenic T cells assessed as late apoptotic cells at 5 uM after 48 hrs by Annexin V-FITC/propidium iodide staining based flow cytometry analysis (reference value: 0.6 %)). Details: not given.
Assay type: functional

SMILES	Activity [%]
COc1cc(O)c2c(c1)/C=C/C[C@H](O)[C@H](O)C(=O)CCC[C@H](C)OC2=O	32.9

The compounds below were run on T-cell (assay: Induction of apoptosis in ConA-induced mouse splenic T cells assessed as increase in cleaved caspase 3 protein expression after 48 hrs by Western blotting analysis). Details: dose 5-20 µM.
Assay type: functional, cell-based

SMILES	Activity
C[C@H](O)C/C=C/[C@@H]1CCCC(=O)Cc2cc(O)cc(O)c2C(=O)O1	Dose-Dependent Effect

These compounds were tested on T-cell (assay: Induction of apoptosis in ConA-induced mouse splenic T cells assessed as early apoptotic cells at 15 uM after 48 hrs by Annexin V-FITC/propidium iodide staining based flow cytometry analysis (reference value: 7.1 %)). Details: not given.
Assay type: functional

SMILES	Activity [%]
COc1cc(O)c2c(c1)/C=C/C[C@H](O)[C@H](O)C(=O)CCC[C@H](C)OC2=O	4.6

The compounds below were run on T-cell (assay: Induction of apoptosis in ConA-induced mouse splenic T cells assessed as late apoptotic cells at 5 uM after 48 hrs by Annexin V-FITC/propidium iodide staining based flow cytometry analysis (reference value: 0.4 %)). Details: not given.
Assay type: functional

SMILES	Activity [%]
C[C@H](O)C/C=C/[C@@H]1CCCC(=O)Cc2cc(O)cc(O)c2C(=O)O1	26.2

Each compound was assayed on T-cell (assay: Induction of apoptosis in ConA-induced mouse splenic T cells assessed as late apoptotic cells at 1 uM after 48 hrs by Annexin V-FITC/propidium iodide staining based flow cytometry analysis (reference value: 0.6 %)). Details: not given.
Assay type: functional

SMILES	Activity [%]
COc1cc(O)c2c(c1)/C=C/C[C@H](O)[C@H](O)C(=O)CCC[C@H](C)OC2=O	26.5

What follows are compounds tested on Splenocyte (assay: Immunosuppressive activity in BALB/c mouse splenocytes assessed as inhibition of LPS-stimulated B-cell proliferation incubated for 48 hrs by MTT assay). Details: not given.
Assay type: functional, cell-based

SMILES	IC50 [µM]
C[C@H](O)CCC[C@@H]1CCCC(=O)Cc2cc(O)cc(O)c2C(=O)O1	> 50
COc1cc(O)c2c(c1)/C=C/C[C@@H](O)[C@@H](O)C(=O)/C=C/C[C@H](C)OC2=O	11.8
COc1cc(O)c2c(c1)/C=C/C[C@H](O)[C@H](O)C(=O)CCC[C@H](C)OC2=O	6.4
COc1cc(O)c2c(c1)/C=C/CC[C@H](O)C(=O)CCC[C@H](C)OC2=O	> 50
C[C@H]1C/C=C/[C@@H](O)[C@@H](O)CC/C=C/c2cc(O)cc(O)c2C(=O)O1 [AIGIALOMYCIN D]	18.4
COc1cc(O)c2c(c1)/C=C/C[C@H](O)[C@@H](O)[C@@H](O)CCC[C@H](C)OC2=O	> 50
COc1cc(O)c2c(c1)/C=C/C[C@H](O)[C@@H](O)C(=O)CCC[C@H](C)OC2=O	> 50
COc1c(C)c2c(c(O)c1C/C=C(\C)CCC(=O)OCCN1CCOCC1)C(=O)OC2 [MYCOPHENOLATE MOFETIL]	0.5
COc1cc(O)c2c(c1)/C=C/C[C@@H](O)[C@@H](O)C(=O)CCC[C@H](C)OC2=O	14.6
C[C@H](O)C/C=C/[C@@H]1CCCC(=O)Cc2cc(O)cc(O)c2C(=O)O1	10.3

What follows are compounds tested on T-cell (assay: Induction of apoptosis in ConA-induced mouse splenic T cells assessed as decrease in Mcl-1 protein expression after 48 hrs by Western blotting analysis). Details: dose 5-20 µM.
Assay type: functional, cell-based

SMILES	Activity
C[C@H](O)C/C=C/[C@@H]1CCCC(=O)Cc2cc(O)cc(O)c2C(=O)O1	Dose-Dependent Effect

What follows are compounds tested on T-cell (assay: Induction of apoptosis in ConA-induced mouse splenic T cells assessed as increase in Bax protein expression after 48 hrs by Western blotting analysis). Details: dose 5-20 µM.
Assay type: functional, cell-based

SMILES	Activity
C[C@H](O)C/C=C/[C@@H]1CCCC(=O)Cc2cc(O)cc(O)c2C(=O)O1	Dose-Dependent Effect

Each compound was assayed on T-cell (assay: Induction of apoptosis in ConA-induced mouse splenic T cells assessed as early apoptotic cells at 5 uM after 48 hrs by Annexin V-FITC/propidium iodide staining based flow cytometry analysis (reference value: 7.1 %)). Details: not given.
Assay type: functional

SMILES	Activity [%]
COc1cc(O)c2c(c1)/C=C/C[C@H](O)[C@H](O)C(=O)CCC[C@H](C)OC2=O	5.8

The compounds below were run on T-cell (assay: Induction of apoptosis in ConA-induced mouse splenic T cells assessed as late apoptotic cells at 15 uM after 48 hrs by Annexin V-FITC/propidium iodide staining based flow cytometry analysis (reference value: 0.6 %)). Details: not given.
Assay type: functional

SMILES	Activity [%]
COc1cc(O)c2c(c1)/C=C/C[C@H](O)[C@H](O)C(=O)CCC[C@H](C)OC2=O	59.1

These compounds were tested on T-cell (assay: Induction of apoptosis in ConA-induced mouse splenic T cells assessed as decrease in Bcl-2 protein expression after 48 hrs by Western blotting analysis). Details: dose 5-20 µM.
Assay type: functional, cell-based

SMILES	Activity
C[C@H](O)C/C=C/[C@@H]1CCCC(=O)Cc2cc(O)cc(O)c2C(=O)O1	Dose-Dependent Effect

These compounds were tested on T-cell (assay: Induction of apoptosis in ConA-induced mouse splenic T cells assessed as increase in cleaved caspase 9 protein expression after 48 hrs by Western blotting analysis). Details: dose 5-20 µM.
Assay type: functional, cell-based

SMILES	Activity
C[C@H](O)C/C=C/[C@@H]1CCCC(=O)Cc2cc(O)cc(O)c2C(=O)O1	Dose-Dependent Effect
